We go through seven compounds from article PMC10291549, “Reaction Behavior of [1,3-Diethyl-4,5-diphenyl-1H-imidazol-2-ylidene] Containing Gold(I/III) Complexes against Ingredients of the Cell Culture Medium and the Meaning on the Potential Use for Cancer Eradication Therapy” (Journal of Medicinal Chemistry, 2023).

Read-outs that look alike come from different tables or passages of the source.

One series concerns K562 cells. The class given is cell-based. The note with it: 72 h incubation; mean ± SD of two or three independent experiments; read-out: metabolic activity IC50, K562.
The test system of series [1] is MCF-7TamR cells (Tamoxifen-resistant subline). The class given is cell-based, human. The note with it: 72 h incubation; mean ± SD of two or three independent experiments; read-out: metabolic activity IC50, MCF-7TamR.
The test system of the next series is IGROV1-CSC cells. The class given is cell-based. Conditions: 72 h incubation; mean ± SD of two or three independent experiments; read-out: metabolic activity IC50, IGROV1-CSC.
The next series deals with IGROV1 cells. In kind it is cell-based. Conditions: 72 h incubation; mean ± SD of two or three independent experiments; read-out: metabolic activity IC50, IGROV1.
The test system of another series is MCF-7 cells. The class given is cell-based, human. The note with it: 72 h incubation; mean ± SD of two or three independent experiments; read-out: metabolic activity IC50, MCF-7.
Another series relates to A549 cells. The class given is cell-based. The note with it: 72 h incubation; mean ± SD of two or three independent experiments; read-out: metabolic activity IC50, A549.
Series [2] has as its system A2780cis cells (Cisplatin-resistant). In kind it is cell-based, human. Conditions: 72 h incubation; mean ± SD of two or three independent experiments; read-out: metabolic activity IC50, A2780cis.
Series [3] deals with K562-R cells (Doxorubicin-resistant subclone). In kind it is cell-based. The note with it: 72 h incubation; mean ± SD of two or three independent experiments; read-out: metabolic activity IC50, K562-R.
In the next series the test system is A2780 cells. In kind it is cell-based, human.
The subject of series [4] is A549-R cells (Taxol/Paclitaxel-resistant subclone). The class given is cell-based. The note with it: 72 h incubation; mean ± SD of two or three independent experiments; read-out: metabolic activity IC50, A549-R.
A short description of series [5]: HPLC degradation study in ACN/RPMI 1640 cell culture medium. The note with it: 0.5 mM.
A short description of series [6]: HPLC reactivity study in chloride containing ACN/water. The class given is physicochemical.
In series [7] the test system is SV-80 lung fibroblast cells. Description: Modified MTT assay in noncancerous cells. The class given is cell-based. The note with it: at 10 μM; mean of three independent experiments. Background: Formazan colour is commonly taken as a measure of viable cells.
Series [8] is described as follows: HPLC reactivity study with GSH in ACN/water. The class given is physicochemical. Conditions: t0h (1.5 min); 20 equiv GSH; ACN/water 50/50; 0.5 mM. The procedure:
All nucleophiles (chloride, amino acids, and GSH) were separately reacted with 5–11 in ACN/water = 50/50 (v/v) mixtures at a complex concentration 0.5 mM. This solvent composition was chosen to prevent precipitation of the complex and the formed degradation products.
Amino acids, as well as GSH, were used in 20-fold excess, as realized at a complex concentration of 10 μM in the cell culture medium. Thereto, the respective complex, dissolved in ACN (1 mM), was combined with the same amount of aqueous solution of the nucleophile (20 mM).
The mixture was then incubated for 24 h at rt and monitored at various time points via HPLC using an RP-C18 column and gradient elution (70/30 (v/v) to 90/10 (v/v)) of ACN/water (0.1% trifluoroacetic acid (TFA)).
Experiments in ACN/water: 1.0 mM solutions of the respective complex were prepared in ACN and diluted with HPLC-grade water (50/50, (v/v)) containing the double-concentrated amount of respective amino acid (20 mM), GSH (20 mM), sodium ascorbate (20 mM), or NADPH (20 mM). As a chloride source, an aqueous solution of KCl 0.8 g/L and NaCl 12 g/L was used. In each case, a final complex concentration of 0.5 mM was achieved. The solutions were incubated for 24 h at rt. For the experiments with RPMI 1640, the aqueous phase was replaced by a cell culture medium.
Samples (20 μL each) were taken at appropriate time points (t = 0 (1.5 min), 0.5, 1, 1.5, 2, 8, 12, and 24 h) and analyzed with a Shimadzu prominence HPLC system. The mobile phase consisted of ACN (HPLC-grade) and water (HPLC-grade) with 0.1% TFA. To achieve a separation of the compounds, gradient elution from (70/30 (v/v) to 90/10 (v/v)) of ACN/water (0.1% trifluoroacetic acid (TFA)) was used with a flow rate of 1 mL/min at an oven temperature of 35 °C. All solvents have been degassed before use. The injection volume was 20 μL, and the detection wavelength was set at 235 nm, to detect the gold complexes and the amino acids in the chromatogram.

The mark [9] stands for this setting: 72 h incubation, mean ± SD of two or three independent experiments, read-out: metabolic activity IC50, A2780.
Where [10] appears, read: t0h, chloride containing ACN/water 50/50, 0.5 mM.
[11] abbreviates: t24h, chloride containing ACN/water 50/50, 0.5 mM.

As usually defined, the IC50 is the concentration needed to halve the response being measured.

Regarding `N.N.[Cl][Pt][Cl]` [Cisplatin, reference compound], the IC50 with K562 cells came to 7910 ± 780 nM; in [1], 4130 ± 590 nM; with IGROV1-CSC cells it was 3760 ± 400 nM; in the series on IGROV1 cells it was 2840 ± 760 nM; with MCF-7 cells, 7180 ± 1280 nM; in the series on A549 cells, 6670 ± 630 nM. Also, the IC50 in series [2] came to 9800 ± 640 nM; in series [3], 9930 ± 770 nM; in the series on A2780 cells (setting [9]) it was 6650 ± 1420 nM; in series [4], 6990 ± 570 nM.
Consider “Bis[1,3-diethyl-4,5-diphenyl-1H-imidazol-2-ylidene]diiodidogold(III) Hexafluorophosphate [Complex 11]”, for which the “time to complete conversion to 8” value in [5] (ACN/RPMI 1640 50/50) was at most 8 h. The IC50 in the series with K562 cells was 970 ± 260 nM; in [1], 200 ± 70 nM; in the series on IGROV1-CSC cells, 2450 ± 970 nM; with IGROV1 cells, 1280 ± 930 nM; with MCF-7 cells, 190 ± 50 nM; with A549 cells, 250 ± 20 nM. The IC50 in series [2] worked out at 20 ± 10 nM; in series [3], 2260 ± 1080 nM; with A2780 cells (setting [9]), 280 ± 60 nM; in series [4] it was 270 ± 40 nM. Also, in series [6] (setting [10]), the “substitution to 9” value turned out to be 0.4%.
On to `CC(=O)OC[C@H]1O[C@@H]([S-])[C@H](OC(C)=O)[C@@H](OC(C)=O)[C@@H]1OC(C)=O.CCP(CC)CC.[Au+]` [Auranofin, reference compound], for which the IC50 in the series with K562 cells was 3660 ± 270 nM; in series [1], 1140 ± 460 nM; in the series with MCF-7 cells, 3150 ± 360 nM; with A549 cells it was 4260 ± 450 nM; in series [3], 3750 ± 380 nM; in [4] it was 4420 ± 440 nM.
As to `CCn1c(-c2ccccc2)c(-c2ccccc2)n(CC)[c]1=[Au+]([Cl])([Cl])=[c]1n(CC)c(-c2ccccc2)c(-c2ccccc2)n1CC.F[P-](F)(F)(F)(F)F` [Complex 9, Bis[1,3-diethyl-4,5-diphenyl-1H-imidazol-2-yliden]dichloridogold(III) Hexafluorophosphate], the “formation of 8” value was 5.0% in series [5] (t0h, ACN/RPMI 1640 50/50) and 36.3% in series [5] (t24h, ACN/RPMI 1640 50/50). Further, the IC50 worked out at 550 ± 160 nM with K562 cells; 260 ± 50 nM in series [1]; 1740 ± 190 nM with IGROV1-CSC cells; 700 ± 380 nM in the series with IGROV1 cells; 240 ± 50 nM in the series on MCF-7 cells; 180 ± 10 nM with A549 cells. Moreover, the IC50 in [2] is 50 ± 20 nM; in [3], 1430 ± 290 nM; with A2780 cells (setting [9]), 250 ± 40 nM; in series [4], 210 ± 20 nM. Also, the “formation of 8 (ligand scrambling / reduction)” value in series [6] (setting [11]) came to 12.5%.
On to `CCn1c(-c2ccccc2)c(-c2ccccc2)n(CC)[c]1=[Au][S]C[C@H](NC(=O)CC[C@H](N)C(=O)O)C(=O)NCC(=O)O` [Complex 12], for which the “IC50 relative to 5 (and 6) in A2780 cells, times higher / fold less active” value is “about 2 fold” in the series on A2780 cells and 2 fold in the series on A2780 cells (listed as (NHC)Au(I)-GSH). Further, the IC50 with A2780 cells (preliminary experiment, read-out: cell growth IC50, A2780) worked out at 15900 nM.
Consider `CCn1c(-c2ccccc2)c(-c2ccccc2)n(CC)[c]1=[Au+]([Br])([Br])=[c]1n(CC)c(-c2ccccc2)c(-c2ccccc2)n1CC.F[P-](F)(F)(F)(F)F` [Complex 10, Bis[1,3-diethyl-4,5-diphenyl-1H-imidazol-2-ylidene]dibromidogold(III) Hexafluorophosphate], for which the “formation of 8” value in series [5] (t0h, ACN/RPMI 1640 50/50) is reported as 9.3%; in series [5] (t24h, ACN/RPMI 1640 50/50), 71.1%; in series [6] (t0h (1.5 min), chloride containing ACN/water 50/50, 0.5 mM) it was 2.2%. Moreover, in series [5] (t0h, ACN/RPMI 1640 50/50), the “formation of 9 (Br/Cl exchange)” value is 42.3%. In series [5] (t24h, ACN/RPMI 1640 50/50), the “amount of 9” value was 18.2%. The “remaining amount of the complex itself” value in [5] (t24h, ACN/RPMI 1640 50/50) came out at 10.7%. The IC50 in the series with K562 cells stood at 490 ± 120 nM; in series [1], 290 ± 180 nM; with IGROV1-CSC cells, 1290 ± 230 nM; in the series on IGROV1 cells, 440 ± 190 nM; in the series with MCF-7 cells it was 220 ± 70 nM; with A549 cells it was 200 ± 20 nM. Further, the half-maximal inhibitory concentration (IC50) in series [2] was 100 ± 40 nM; in series [3] it was 1590 ± 300 nM; in the series with A2780 cells (setting [9]), 290 ± 50 nM; in series [4], 250 ± 40 nM. Also, the “substitution to 9” value in series [6] (setting [10]) is reported as 24.0%; in [6] (setting [11]) it was 54.4%. Moreover, the “formation of 8 (ligand scrambling / reduction)” value in [6] (setting [11]) is recorded as 5.1%.
On to “Bromido[1,3-diethyl-4,5-diphenyl-1H-imidazol-2-ylidene]gold(I) [Complex 6]”, for which the “conversion to 5” value is “immediately converted” in series [5] (t0h, ACN/RPMI 1640 50/50 (without FCS)) and “quantitatively” in [6] (t0h (1.5 min), ACN/water 50/50, 6.0 g/L NaCl + 0.4 g/L KCl, 0.5 mM complex, rt). In series [7], the “metabolic activity (remaining) in SV-80 cells” value is given as 20%. Moreover, the IC50 in the series on K562 cells is above 10000 nM; in [1] it was 4640 ± 440 nM; with IGROV1-CSC cells, 8780 ± 600 nM; in the series with IGROV1 cells, 5780 ± 900 nM; with MCF-7 cells, 4540 ± 520 nM; in the series on A549 cells it was above 10000 nM. Further, the IC50 in series [2] was 2870 ± 330 nM; in [3], above 10000 nM; with A2780 cells (setting [9]), 9380 ± 800 nM; in series [4], above 10000 nM. Besides, the “substitution to (NHC)Au(I)-GSH adduct 12” value in [8] was “quantitatively”.
